Entries after “also recorded” stand apart in the source; their conditions may differ. Like-named read-outs stand apart in the source and are kept apart here. Non-standard residues stand in square brackets, D forms with d. Residues, ends and D or L forms follow the SMILES beside them. Dmt = Cc1cc(O)cc(C)c1C[C@H](N)C(=O)O; Tic = O=C(O)[C@@H]1Cc2ccccc2CN1
Key:
[1] = target: T1, δ-opioid receptors (Rattus norvegicus, UniProt P33533); assay: Rat brain synaptosome (P2) binding, agonist [3H]DPDPE (Example 47); conditions: for Agonist K1μ/Kiδ: selectivity, Kiδ from agonist radioligand [3H]DPDPE
T1 construct: assayed with a rat brain synaptosomal preparation (P2); from tissue; host or cells: rat brain P2 synaptosomes

[2] = target: T1, δ-opioid receptors; assay: Rat brain synaptosome (P2) binding, δ antagonist [3H]N,N(CH3)2-Dmt-Tic-OH (Example 47); conditions: for Antagonist K1μ/Kiδ: selectivity, Kiδ from antagonist radioligand [3H]N,N(CH3)2-Dmt-Tic-OH
Procedure: Briefly, the agonists [^3H]DPDPE (30-60 Ci/mmol, NEN-DuPont) and [^3H]DAGO (30-60 Ci/mmol, Amersham) were used to label δ and μ sites, respectively, under saturation binding conditions (2 hrs at 22° C.). Excess unlabeled peptide (2 μM) established non-specific binding levels and the labeled membranes were rapidly filtered on Whatman GF/C glass fibre filters, thoroughly washed, dried and measured for radioactivity using CytoScint (ICN, Irvine, Calif.). […] The affinity constants (Ki) were calculated according to Cheng and Prusoff (Biochem. Pharmacol. 22: 3099-3108 (1973)).

[3] = target: T2, μ-opioid receptors (Rattus norvegicus, UniProt P33535); assay: Rat brain synaptosome (P2) binding, [3H]DAGO (Example 47)
T2 construct: assayed with a rat brain synaptosomal preparation (P2); from tissue; host or cells: rat brain P2 synaptosomes

[4] = target: hMDR-1 (Homo sapiens, UniProt P08183); assay: Calcein AM assay for Pgp in hMDR-1 transfected G-185 fibroblasts (Example 49); conditions: for inhibition of hMDR-1 (Pgp), in words: calcein fluorescence
Procedure: Stably transfected G-185 fibroblasts containing hMDR-1 and NIH 3T3 cell lines were grown to confluent monolayers in DMEM containing 4.5 g glucose/1, 10% fetal calf serum, L-glutamine, penicillin (50 units/ml), streptomycin (50 μg/ml) and 1 mM sodium pyruvate in 5% CO2 at 37° C. G-185 cells were maintained in […] colchicine.
The assay for Pgp is based on the diffusion of non-fluorescent calcein AM across the cell membrane. Calcein AM is then hydrolyzed and accumulates as the fluorescent calcein. In transfected cells expressing excess hMDR-1, Pgp extrudes calcein AM from the cell before hydrolysis occurs; inhibition of hMDR-1 results in the accumulation of intracellular calcein. Transfected G-185 cells and the NIH 3T3 cells were analyzed in triplicate using seven graded dosages of verapamil or the opioid peptides in 96-well plates. Cells (2.5×10^6/well) were incubated in 100 μl culture medium for 15 min at 37° C. and 50 μl of 1 μM calcein AM in PBS, plus 50 μl of verapamil or one of the present inventive compounds in PBS, or 100 μl of PBS alone (control) were added. Cells were mixed and incubated for 15 min at 37° C., then centrifuged for 5 min at 2,000×g, and then washed three times in 200 μl PBS. Cell pellets were resuspended in 200 μl PBS and transferred to white Microfluor Plates (Nunc, Copenhagen, Denmark) in order to measure calcein-specific fluorescence (494 nm absorption; 517 nm emission). Internal controls were carried out with each experiment using verapamil and PBS in order to compare the consistency between cell preparations. Means±SE (error bars) were determined and plotted using Prism™ (GraphPad, San Diego, Calif.).

[5] = target: μ receptors (Cavia porcellus, UniProt P97266); assay: Guinea pig ileum (GPI) functional bioassay (Example 48)
Procedure: (§1) The functional bioactivity of the present inventive compounds was assessed using standard functional bioassays of δ and μ activity in MVD and GPI (Salvadori et al. (1995), supra; and Salvadori et al., J. Med. Chem. 36: 3748-3756 (1993)). […] Dose-response curves were obtained (Salvadori et al. (1995), supra) for both tissues. […] Data were derived from at least four independent tissue samples and dose-response curves from which the pA2 values were determined (Salvadori et al. (1997), supra) according to Arunlakshana and Schild (Br. J. Pharmacol. 14: 48-58 (1959)).

[6] = target: T3, δ receptors (Rattus norvegicus, UniProt P33533); assay: Radio-receptor competition assay, rat brain synaptosomes, [3H]DPDPE (Example 74); assay type: binding; conditions: selectivity Kiμ/Kiδ
T3 construct: assayed with a rat brain synaptosomal preparation (P2); from tissue; host or cells: rat brain P2 synaptosomes
Procedure: (§2) After 120 min incubation at room temperature (23-24° C.), the samples were rapidly filtered through Whatman GF/C glass fiber filers and washed three times with 2 ml ice-cold 0.05 M Tris, pH 7.4-7.5, containing 0.1% BSA. Presoaking filters in 0.1% polyethylenimine is only required in assays with peptides carrying an overall positive charge, such as dynorphin or nociceptin (Guerrini et al., J. Med. Chem., 40: 1789-1793 (1997)). Non-specific binding was determined using 2 μM unlabeled DPDPE or DAGO for δ or μ assays, respectively. The Ki data, determined according to Cheng and Prusoff (Cheng et al., Biochem. Pharmacol., 22: 3099-3108 (1973)), represent the means±SE from 3 or more independent assays using at least 3 different synaptosome preparations and testing the analogues with 5-8 graded dosages over 2-3 orders of magnitude in concentration.

[7] = target: T4, μ receptors (Rattus norvegicus, UniProt P33535); assay: Radio-receptor competition assay, rat brain synaptosomes, [3H]DAGO (Example 74); assay type: binding; conditions: rat brain P2 synaptosomes, [3H]DAGO; read-out: Receptor affinity (nM) Kiμ
T4 construct: assayed with a rat brain synaptosomal preparation (P2); from tissue; host or cells: rat brain P2 synaptosomes
Procedure: as §2

[8] = target: δ receptors (Mus musculus, UniProt P32300)
Procedure: as §1

[9] = rat brain synaptosomes (P2), mean ± SEM, n in parentheses, read-out: Kiμ (nM) [^3H]DAGO
[10] = MVD pA2 (range), δ antagonism against deltorphin C, mean (range)
[11] = δ antagonism, Ke = antilog of pA2

Chain of δ receptors (Mus musculus, UniProt P32300) (P32300 whole entry): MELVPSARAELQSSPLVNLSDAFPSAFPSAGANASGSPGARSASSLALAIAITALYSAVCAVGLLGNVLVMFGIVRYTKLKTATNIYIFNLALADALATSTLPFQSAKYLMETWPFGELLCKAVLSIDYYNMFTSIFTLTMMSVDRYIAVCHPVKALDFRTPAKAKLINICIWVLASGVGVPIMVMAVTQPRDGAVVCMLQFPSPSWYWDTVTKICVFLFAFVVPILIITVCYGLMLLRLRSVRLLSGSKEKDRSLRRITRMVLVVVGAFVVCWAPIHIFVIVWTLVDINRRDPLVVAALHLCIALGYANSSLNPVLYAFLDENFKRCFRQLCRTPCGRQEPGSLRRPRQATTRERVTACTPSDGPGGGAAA
Chain of μ receptors (Cavia porcellus, UniProt P97266) (P97266 whole entry, looked up): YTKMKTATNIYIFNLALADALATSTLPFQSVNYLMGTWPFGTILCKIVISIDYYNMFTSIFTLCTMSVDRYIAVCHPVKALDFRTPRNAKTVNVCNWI
T2 sequence (P33535 whole entry): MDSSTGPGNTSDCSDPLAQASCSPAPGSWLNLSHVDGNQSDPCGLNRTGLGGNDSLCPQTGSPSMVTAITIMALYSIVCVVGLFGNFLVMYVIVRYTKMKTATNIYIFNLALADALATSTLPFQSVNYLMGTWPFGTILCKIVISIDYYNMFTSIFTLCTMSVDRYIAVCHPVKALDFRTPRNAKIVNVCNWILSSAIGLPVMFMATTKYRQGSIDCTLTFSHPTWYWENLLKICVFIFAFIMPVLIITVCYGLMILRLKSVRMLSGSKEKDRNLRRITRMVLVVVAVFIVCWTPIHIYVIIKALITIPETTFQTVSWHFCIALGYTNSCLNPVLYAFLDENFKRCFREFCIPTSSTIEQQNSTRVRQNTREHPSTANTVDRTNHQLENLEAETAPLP
T1 sequence (P33533 whole entry): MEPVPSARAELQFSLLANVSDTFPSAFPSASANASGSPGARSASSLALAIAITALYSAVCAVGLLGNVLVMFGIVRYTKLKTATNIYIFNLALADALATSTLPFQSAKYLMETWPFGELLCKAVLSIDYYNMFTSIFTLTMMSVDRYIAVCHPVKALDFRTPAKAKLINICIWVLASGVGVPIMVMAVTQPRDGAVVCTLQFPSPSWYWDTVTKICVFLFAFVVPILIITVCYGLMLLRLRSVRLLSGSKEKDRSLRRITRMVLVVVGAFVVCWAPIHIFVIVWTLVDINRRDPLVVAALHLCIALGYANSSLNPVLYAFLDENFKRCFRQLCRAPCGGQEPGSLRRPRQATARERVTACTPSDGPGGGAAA
Chain of hMDR-1 (P08183 whole entry): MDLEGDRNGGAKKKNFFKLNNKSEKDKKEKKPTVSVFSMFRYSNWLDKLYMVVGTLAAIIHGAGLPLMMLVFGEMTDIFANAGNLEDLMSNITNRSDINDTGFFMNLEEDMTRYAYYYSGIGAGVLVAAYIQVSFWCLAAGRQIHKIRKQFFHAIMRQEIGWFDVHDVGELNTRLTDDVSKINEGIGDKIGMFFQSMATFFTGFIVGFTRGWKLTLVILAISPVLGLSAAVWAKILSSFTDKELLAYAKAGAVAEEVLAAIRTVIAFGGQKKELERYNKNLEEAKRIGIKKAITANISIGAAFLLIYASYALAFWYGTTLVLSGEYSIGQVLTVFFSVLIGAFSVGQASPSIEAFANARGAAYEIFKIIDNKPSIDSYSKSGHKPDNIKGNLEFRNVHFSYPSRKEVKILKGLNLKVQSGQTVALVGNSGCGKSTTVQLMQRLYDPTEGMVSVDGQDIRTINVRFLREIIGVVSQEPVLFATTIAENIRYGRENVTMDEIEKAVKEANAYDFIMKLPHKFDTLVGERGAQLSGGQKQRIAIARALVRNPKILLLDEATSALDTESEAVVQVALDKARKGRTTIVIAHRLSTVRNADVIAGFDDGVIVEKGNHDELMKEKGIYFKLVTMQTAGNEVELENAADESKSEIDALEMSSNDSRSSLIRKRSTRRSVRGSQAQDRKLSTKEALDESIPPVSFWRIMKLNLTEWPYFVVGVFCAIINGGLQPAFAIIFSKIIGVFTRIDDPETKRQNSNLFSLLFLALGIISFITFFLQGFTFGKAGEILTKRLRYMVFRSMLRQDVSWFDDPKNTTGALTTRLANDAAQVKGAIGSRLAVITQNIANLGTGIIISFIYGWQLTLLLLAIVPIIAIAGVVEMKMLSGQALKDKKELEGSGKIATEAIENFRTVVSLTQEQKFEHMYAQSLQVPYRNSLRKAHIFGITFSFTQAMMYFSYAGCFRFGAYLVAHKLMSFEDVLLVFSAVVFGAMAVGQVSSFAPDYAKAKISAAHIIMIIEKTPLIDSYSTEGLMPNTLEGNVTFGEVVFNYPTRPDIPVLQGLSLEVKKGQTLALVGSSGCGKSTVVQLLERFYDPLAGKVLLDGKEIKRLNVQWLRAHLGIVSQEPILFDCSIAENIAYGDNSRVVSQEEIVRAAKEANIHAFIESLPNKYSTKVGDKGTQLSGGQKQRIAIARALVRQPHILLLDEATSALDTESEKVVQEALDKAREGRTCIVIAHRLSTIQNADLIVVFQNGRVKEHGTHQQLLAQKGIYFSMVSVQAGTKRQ
T4 sequence (P33535 whole entry): as the sequence (P33535 whole entry) above
T3 sequence (P33533 whole entry): as the sequence (P33533 whole entry) above

## Cc1cc(O)cc(C)c1C[C@@H]1NC(=O)[C@@H]2Cc3ccccc3CN2C1=O [cyclo (DMT-Tic), reference compound]
[1]
  Ki: 9.58 ± 1.98 nM
  Agonist K1μ/Kiδ: 635 ± 69 (3-5)
[2]
  Antagonist K1μ/Kiδ: no activity
[3]; rat brain synaptosomes (P2), mean ± SEM, n in parentheses
  Kiμ (nM) [^3H]DAGO: no activity
[4]
  inhibition of hMDR-1 (Pgp), in words: moderately effective inhibitor

## C[C@@H](NC(=O)[C@@H](N)Cc1ccc(O)cc1)C(=O)N[C@@H](Cc1ccccc1)C(=O)NCC(=O)N[C@@H](Cc1ccc(O)cc1)C(=O)N1CCC[C@H]1C(=O)N[C@@H](CO)C(N)=O [Dermorphin, H-Tyr-D-Ala-Phe-Gly-Tyr-Pro-Ser-NH2]
[5]
  IC50: 0.00182 µM
[4]
  inhibition of hMDR-1 (Pgp), in words: lack of inhibition
[4]; listed as DER
  inhibition of hMDR-1 (Pgp), in words: inactive

## Cc1cc(O)cc(C)c1C[C@H](N)C(=O)N1Cc2ccccc2C[C@H]1CO [H-Dmt-Tic-ol, reference compound]
[6]
  μ/δ: 344
[7]
  Ki: 151 nM

## CNC(=O)[C@@H]1Cc2ccccc2CN1C(=O)[C@@H](N)Cc1c(C)cc(O)cc1C [Compound 7, H-Dmt-Tic-NHMe] (H-[Dmt]-[Tic]-NHMe)
[3]; [9]
  Ki: 85.5 ± 7.7 nM
[8]
  EC50: 21.2 µM
  bioactivity on MVD (δ), in words: extraordinarily weak δ agonism
[8]; MVD Ke(nM), δ antagonism, Ke = antilog of pA2
  Kb: > 10000 nM
[8]; δ antagonism against deltorphin C, mean (range)
  MVD pA2 (range): —^d
[5]
  EC50: > 10 µM
  Kb: 1.15 µM
  bioactivity on GPI (μ), in words: low μ antagonism
[5]; μ antagonism
  GPI Ke: 1.15 µM
[4]
  inhibition of hMDR-1 (Pgp), in words: inactive

## Cc1cc(O)cc(C)c1C[C@@H](C(=O)N1Cc2ccccc2C[C@H]1C(=O)NC12CC3CC(CC(C3)C1)C2)N(C)C [Compound 15, N,N(Me)2-Dmt-Tic-NH-1-adamantane]
[1]
  Ki: 0.16 ± 0.17 nM
  Agonist K1μ/Kiδ: 7
[1]; from Table II binding
  δ/μ selectivity, in words: essentially nonselective
[2]
  Ki: 0.12 ± 0.02 nM
  Antagonist K1μ/Kiδ: 9
[3]
  Ki: 1.12 ± 0.1 nM
  rise in μ affinity relative to N,N(Me)2-Dmt-Tic-OH: ~2,200 fold
[8]; [10]
  Kb: 0.871 nM
[8]; [11]
  MVD Ke: 0.87 nM
[5]
  EC50: 0.016 µM
  bioactivity on GPI (μ), in words: clearly displayed μ agonism
[4]; rank within amide series
  order of inhibition of hMDR-1: (compound 15)=H-Dmt-Tic-NH-1-adamantane (compound 11)

## C[C@@H](NC(=O)[C@@H](N)Cc1ccc(O)cc1)C(=O)NCC(=O)N(C)[C@@H](Cc1ccccc1)C(=O)NCCO [DAGO, H-Tyr-D-Ala-Gly-N-MePhe-Gly-ol]
[4]
  inhibition of hMDR-1 (Pgp), in words: inactive; also recorded: lack of inhibition

## Cc1cc(O)cc(C)c1C[C@@H](C(=O)N1Cc2ccccc2C[C@H]1C(=O)O)N1CCCCC1 [Compound 3, [des-NH2-α-piperidine-1-yl]-Dmt-Tic-OH]
[1]; rat brain synaptosomes (P2), mean ± SEM, n in parentheses, read-out: Kiδ(nM) [^3H]DPDPE
  Ki: 1.18 ± 0.1 nM
[1]
  Agonist K1μ/Kiδ: 1728
[2]; rat brain synaptosomes (P2), δ antagonist radioligand, mean ± SEM, n in parentheses, read-out: Kiδ(nM) [^3H]N,N(CH3)2-Dmt-Tic-OH
  Ki: 0.74 ± 0.3 nM
[2]
  Antagonist K1μ/Kiδ: 2755
[3]; [9]
  Ki: 2040 ± 264 nM
[8]
  bioactivity on MVD (δ), in words: detrimental for all bioactivity measurements on MVD
[8]; [10]
  Kb: 49 nM
[8]; [11]
  MVD Ke: 49 nM
[5]
  EC50: > 10 µM
[4]
  inhibition of hMDR-1 (Pgp), in words: inactive

## CC1(C)SSC(C)(C)[C@@H](NC(=O)[C@@H](N)Cc2ccc(O)cc2)C(=O)NCC(=O)N[C@@H](Cc2ccccc2)C(=O)N[C@H]1C(=O)O [DPDPE, H-Tyr-[D-Pen-Gly-Phe-D-Pen] enkephalin]
[4]
  inhibition of hMDR-1 (Pgp), in words: inactive; also recorded: lack of inhibition

Source: US6916905B2, “Dmt-Tic di-and tri-peptidic derivatives and related compositions and methods of use” (The United States of America as represented by the …, priority 2000, dated 2005)
